Measured values: patent US12221453B2, “Substituted pyrazolo[5′,1′:2,3]pyrimido[5,4-b][1,4]oxazines as TYK2 inhibitors” (TAKEDA PHARMACEUTICAL COMPANY LIMITED, priority 2018, dated 2025)

These molecules were tested on IL-12 induced STAT4 phosphorylation mediated by TYK2/JAK2 (assay: IL-12 induced pSTAT4 in human PBMC). Conditions: 1 hr compound, 1.7 ng/mL IL-12 for 30 minutes.
Type: cell-based
Summary of the method: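 Thawed human PBMC were pre-incubated with compound for 1 hr at 37 °C (0.1% DMSO), then stimulated with 1.7 ng/mL IL-12 for 30 minutes. Phospho-STAT4 and total STAT4 were measured in cell lysates by MSD.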
With `CNc1cc(Nc2cccn([C@H]3C[C@H](F)C3)c2=O)nc2c(C(=O)N[C@@H]3CCC3(F)F)cnn12` [Compound I-285] the IC50 was < 0.1 µM.
With `CNc1cc(-c2cn(C3CN(C)C3)c3ncccc23)nc2c(C(=O)NC3CCC3(F)F)cnn12` (stereo not shown) [Compound I-676] the IC50 was < 0.1 µM.
In the case of `CNc1cc(-c2cnc3n([C@@H]4COC[C@H]4OC)cccc2-3)nc2c(C(=O)NC3CC[C@@H]3OC)cnn12` (stereo partly shown) [Compound I-883], the IC50 is reported as < 0.1 µM.
For `O=C(NC1CC[C@@H]1F)c1cnn2c3c(c(-c4cn([C@H]5C[C@H](O)C5)c5ncccc45)nc12)OCCN3` (stereo partly shown) [Compound I-756], the IC50 was < 0.1 µM.
In the case of `CNc1cc(-c2cn([C@@H]3COC[C@H]3OC)c3ccccc23)nc2c(C(=O)N[C@H]3CC[C@H]3O)cnn12` [Compound I-787], the IC50 is reported as < 0.1 µM.
For `CNc1cc(-c2cn([C@H]3[C@@H]4COC[C@@H]43)c3ncccc23)nc2c(C(=O)N[C@H]3CC[C@@H]3O)cnn12` [Compound I-915], the IC50 was < 0.1 µM.
`CNc1cc(Nc2cccn([C@H]3C[C@H](OC)C3)c2=O)nc2c(C(=O)NC3CC[C@@H]3F)cnn12` (mixture of isomers) [Compound I-176] was tested, and the IC50 was < 0.1 µM.
`CNc1cc(Nc2cccn(C3CCOCC3)c2=O)nc2c(C(=O)NC3CC[C@]3(C)O)cnn12` (stereo partly shown) [Compound I-348] was tested, and the IC50 was < 0.1 µM.
`CNc1cc(Nc2cccn([C@H]3CC[C@H](OC)CC3)c2=O)nc2c(C(=O)N[C@@H]3C[C@H]3OC)cnn12` [I-31, 5-((1-((1r,4R)-4-Methoxycyclohexyl)-2-oxo-1,2-dihydropyridin-3-yl)amino)-N-((1R,2R)-2-methoxycyclopropyl)-7-(methylamino)pyrazolo[1,5-a]pyrimidine-3-carboxamide] was tested, and the IC50 was < 0.1 µM.
`CNc1cc(Nc2cccn([C@H]3CCCOC3)c2=O)nc2c(C(=O)N[C@@H]3CCC3(F)F)cnn12` [Compound I-314] was tested, and the IC50 was < 0.1 µM.
With `CNc1cc(Nc2cccn([C@H]3C[C@@H](OC)C3)c2=O)nc2c(C(=O)NC3CC[C@@H]3F)cnn12` (mixture of isomers) [Compound I-173] the IC50 was < 0.1 µM.
`CNc1cc(Nc2cccn([C@@H]3CCCC[C@@H]3O)c2=O)nc2c(C(=O)NC3CC[C@@H]3F)cnn12` (stereo partly shown) [Compound I-209] was tested, and the IC50 was < 0.1 µM.
In the case of `CNc1cc(-c2cn([C@H]3CCOC[C@H]3OC)c3ncccc23)nc2c(C(=O)N[C@H]3CC[C@@H]3OC)cnn12` [Compound I-666], the IC50 is reported as < 0.1 µM.
For `CNc1cc(Nc2cccn([C@@H]3CCCOC3)c2=O)nc2c(C(=O)NC3CC[C@@H]3F)cnn12` (stereo partly shown) [Compound I-194], the IC50 was < 0.1 µM.
In the case of `CNc1cc(-c2cn([C@@H]3CCN(C)C3)c3ncccc23)nc2c(C(=O)N[C@H]3CC[C@@H]3OC)cnn12` [Compound I-616], the IC50 is reported as < 0.1 µM.
`CNc1cc(-c2cn([C@@H]3COC[C@H]3O)c3ncccc23)nc2c(C(=O)N[C@H]3CCC3(F)F)cnn12` [Compound I-693] was tested, and the IC50 was < 0.1 µM.
With `CNc1cc(-c2cn([C@H]3C[C@@H](O)C3)c3ncccc23)nc2c(C(=O)NC3CC[C@H]3O)cnn12` (stereo partly drawn) [I-111, N-((cis-1,2)-2-Hydroxycyclobutyl)-5-(1-((1s,3R)-3-hydroxycyclobutyl)-1H-pyrrolo[2,3-b]pyridin-3-yl)-7-(methylamino)pyrazolo[1,5-a]pyrimidine-3-carboxamide] the IC50 was 0.1 to 0.5 µM.
`CNc1cc(Nc2cccn([C@H]3CCCC[C@H]3O)c2=O)nc2c(C(=O)N[C@@H]3CC[C@H]3F)cnn12` [Compound I-214] was tested, and the IC50 was < 0.1 µM.
With `CNc1cc(-c2cn([C@@H]3CCOC[C@@H]3OC)c3ncccc23)nc2c(C(=O)N[C@H]3CC[C@@H]3F)cnn12` [Compound I-798] the IC50 was < 0.1 µM.
For `CNc1cc(Nc2cccn([C@@H]3CCC[C@H](C#N)C3)c2=O)nc2c(C(=O)NC3CCC3(F)F)cnn12` (stereo partly shown) [Compound I-327], the IC50 was < 0.1 µM.
With `CNc1cc(Nc2cccn([C@H]3[C@@H]4COC[C@@H]43)c2=O)nc2c(C(=O)N[C@H]3CCC3(F)F)cnn12` [Compound I-307] the IC50 was < 0.1 µM.
`CNc1cc(Nc2cccn(-c3ccccn3)c2=O)nc2c(C(=O)N[C@@H]3CC[C@H]3OC)cnn12` [Compound I-264] was tested, and the IC50 was < 0.1 µM.
`CNc1cc(Nc2cccn([C@H]3C[C@@H](OC)C3)c2=O)nc2c(C(=O)NC3CCC3(F)F)cnn12` (stereo partly shown) [Compound I-295] was tested, and the IC50 was < 0.1 µM.
`CNc1cc(Nc2cccn([C@@H]3CCOC[C@@H]3OC)c2=O)nc2c(C(=O)N[C@@H]3CC[C@@H]3F)cnn12` [Compound I-235] was tested, and the IC50 was < 0.1 µM.
With `CNc1cc(Nc2cccn(C3COC3)c2=O)nc2c(C(=O)N[C@@H]3C[C@@H]3F)cnn12` [Compound I-125] the IC50 was < 0.1 µM.
For `CNc1cc(-c2cn([C@H]3CCN(C)C3)c3ncccc23)nc2c(C(=O)NC3CC[C@@H]3OC)cnn12` (stereo partly shown) [Compound I-618], the IC50 was < 0.1 µM.
For `CNc1cc(-c2cn([C@H]3CCOC3)c3ncccc23)nc2c(C(=O)N[C@H]3CC[C@@H]3OC)cnn12` [Compound I-613], the IC50 was < 0.1 µM.
For `CNc1cc(-c2cn([C@H]3COC[C@H]3F)c3ncccc23)nc2c(C(=O)N[C@H]3CC[C@@H]3OC)cnn12` [Compound I-625], the IC50 was < 0.1 µM.
`CNc1cc(-c2cnc3n([C@@H]4CCOC[C@H]4O)cccc2-3)nc2c(C(=O)N[C@@H]3C[C@@H]3F)cnn12` [Compound I-824] was tested, and the IC50 was < 0.1 µM.
With `CNc1cc(-c2cnc3n([C@H]4COC[C@@H]4OC)cccc2-3)nc2c(C(=O)N[C@H]3CC[C@H]3F)cnn12` [Compound I-839] the IC50 was < 0.1 µM.
In the case of `CNc1cc(-c2cn([C@H]3CCOC[C@H]3OC)c3ncccc23)nc2c(C(=O)NC3CC[C@@H]3F)cnn12` (stereo partly shown) [Compound I-546], the IC50 is reported as < 0.1 µM.
In the case of `CNc1cc(Nc2cccn(C3CCOCC3)c2=O)nc2c(C(=O)NC3CCC3)cnn12` [Compound I-143], the IC50 is reported as < 0.1 µM.
For `CNc1cc(Nc2cccn([C@H]3CC[C@H](OC)CC3)c2=O)nc2c(C(=O)N[C@H]3C[C@@H]3OC)cnn12` [I-32, 5-((1-((1r,4S)-4-Methoxycyclohexyl)-2-oxo-1,2-dihydropyridin-3-yl)amino)-N-((1S,2S)-2-methoxycyclopropyl)-7-(methylamino)pyrazolo[1,5-a]pyrimidine-3-carboxamide], the IC50 was < 0.1 µM.
`CNc1cc(Nc2cccn(C3CCN(CCF)CC3)c2=O)nc2c(C(=O)NC3CC[C@@H]3F)cnn12` (stereo partly shown) [Compound I-236] was tested, and the IC50 was < 0.1 µM.
With `CNc1cc(-c2cn([C@@H]3COC[C@H]3O)c3ncccc23)nc2c(C(=O)NC3CCC3(F)F)cnn12` (stereo partly shown) [Compound I-692] the IC50 was < 0.1 µM.
In the case of `CNc1cc(-c2cnc3n(C4CCOCC4)cccc2-3)nc2c(C(=O)N[C@H]3CC[C@@H]3OC)cnn12` [Compound I-1014], the IC50 is reported as < 0.1 µM.
For `CNc1cc(Nc2cccn([C@H]3CCCC[C@H]3O)c2=O)nc2c(C(=O)NC3CC[C@]3(C)OC)cnn12` (stereo partly shown) [Compound I-423], the IC50 was < 0.1 µM.
With `CNc1cc(Nc2cccn([C@H]3CC[C@@H](OC)CC3)c2=O)nc2c(C(=O)N[C@@H]3CC[C@@]3(C)OC)cnn12` [Compound I-431] the IC50 was < 0.1 µM.
In the case of `CNc1cc(Nc2cccn([C@@H]3CCC[C@@H]3O)c2=O)nc2c(C(=O)N[C@@H]3CC[C@H]3F)cnn12` [Compound I-181], the IC50 is reported as < 0.1 µM.
For `CNc1cc(Nc2cccn(C3CCOCC3)c2=O)nc2c(C(=O)NC3CCC3(F)F)cnn12` (stereo not shown) [Compound I-309], the IC50 was < 0.1 µM.
With `CNc1cc(Nc2cccn(C3COC3)c2=O)nc2c(C(=O)NC3CCC3(F)F)cnn12` (stereo not shown) [Compound I-280] the IC50 was < 0.1 µM.
`CNc1cc(-c2cnc3n([C@H]4COC[C@@H]4OC)cccc2-3)nc2c(C(=O)NC3CC[C@H]3F)cnn12` (stereo partly shown) [Compound I-838] was tested, and the IC50 was < 0.1 µM.
For `CNc1cc(Nc2cccn(C3CCOCC3)c2=O)nc2c(C(=O)NC3CC[C@@H]3F)cnn12` (stereo partly shown) [Compound I-188], the IC50 was < 0.1 µM.
In the case of `CNc1cc(-c2cn([C@@H]3COC[C@@H]3F)c3ncccc23)nc2c(C(=O)N[C@H]3CC[C@@H]3OC)cnn12` [Compound I-622], the IC50 is reported as < 0.1 µM.
For `CNc1cc(Nc2cccn(C3COC3)c2=O)nc2c(C(=O)N[C@@H]3CCC3(F)F)cnn12` [Compound I-282], the IC50 was < 0.1 µM.
`CNc1cc(-c2cnc3n([C@H]4COC[C@@H]4O)cccc2-3)nc2c(C(=O)N[C@H]3CC[C@@H]3F)cnn12` [Compound I-828] was tested, and the IC50 was < 0.1 µM.
With `CNc1cc(-c2cn([C@H]3COC[C@H]3F)c3ncccc23)nc2c(C(=O)N[C@H]3CC[C@H]3O)cnn12` [Compound I-574] the IC50 was < 0.1 µM.
`CC(C)n1cccc(Nc2nc3c(C(=O)NC4CCC4(F)F)cnn3c3c2OCCN3)c1=O` (stereo not shown) [Compound I-765] was tested, and the IC50 was < 0.1 µM.
For `CNc1cc(Nc2cccn(C(C)C)c2=O)nc2c(C(=O)N[C@@H]3CC[C@H]3F)cnn12` [Compound I-147], the IC50 was < 0.1 µM.
For `CNc1cc(-c2cnc3n([C@H]4COC[C@@H]4O)cccc2-3)nc2c(C(=O)NC3CC3)cnn12` [Compound I-816], the IC50 was < 0.1 µM.
For `CNc1cc(Nc2cccn([C@H]3CC[C@H]3O)c2=O)nc2c(C(=O)N[C@H]3CCC3(F)F)cnn12` [Compound I-287], the IC50 was < 0.1 µM.
With `CNc1cc(Nc2cccn(C3COC3)c2=O)nc2c(C(=O)N[C@@H]3CC[C@@H]3F)cnn12` [Compound I-162] the IC50 was < 0.1 µM.
In the case of `CNc1cc(-c2cn([C@H]3C[C@@H](O)C3)c3ncccc23)nc2c(C(=O)NC3CC[C@@H]3F)cnn12` (stereo partly shown) [Compound I-510], the IC50 is reported as < 0.1 µM.
With `CNc1cc(Nc2cccn([C@H]3CC[C@@H]3OC)c2=O)nc2c(C(=O)NC3CC[C@H]3O)cnn12` (stereo partly shown) [Compound I-239] the IC50 was < 0.1 µM.
For `CNc1ccc(-c2cc(NC)n3ncc(C(=O)NC4CC[C@H]4O)c3n2)n2ccnc12` (stereo partly shown) [Compound I-484], the IC50 was < 0.1 µM.
With `CNc1cc(Nc2cccn(C3CCN(CCF)CC3)c2=O)nc2c(C(=O)N[C@H]3CC[C@@H]3F)cnn12` [Compound I-237] the IC50 was < 0.1 µM.
For `CNc1cc(Nc2cccn([C@H]3[C@@H]4COC[C@@H]43)c2=O)nc2c(C(=O)N[C@@H]3CC[C@@H]3F)cnn12` [Compound I-205], the IC50 was < 0.1 µM.
In the case of `CNc1cc(-c2cn([C@H]3C[C@@H](O)C3)c3ncccc23)nc2c(C(=O)NC3CC3)cnn12` [Compound I-495], the IC50 is reported as < 0.1 µM.
`CNc1cc(-c2cnc3n([C@@H]4COC[C@H]4O)cccc2-3)nc2c(C(=O)NC3CC3)cnn12` [Compound I-817] was tested, and the IC50 was < 0.1 µM.
For `CNc1cc(-c2cn([C@H]3CCOC3)c3ncccc23)nc2c(C(=O)NC3CC[C@@H]3OC)cnn12` (stereo partly shown) [Compound I-612], the IC50 was < 0.1 µM.
`CNc1cc(Nc2cccn([C@H]3CC[C@H](OC)CC3)c2=O)nc2c(C(=O)NC3CC[C@@H]3F)cnn12` (stereo partly shown) [Compound I-224] was tested, and the IC50 was < 0.1 µM.
